The subject of one data set is mouse NSPCs. Nature of the data set: Neurosphere size after co-incubation with probe. It is filed as cell-based. Conditions: 1 μM, 7 days.
Data set [1] can be described thus: Spectroscopic properties of CF library (absorbance, emission, quantum yield, extinction coefficient). It is filed as physicochemical. The method, then:
All the chemicals and solvents were purchased from Sigma Aldrich, Alfa Aesar, Fluka, MERCK, Tocris or Acros, and used without further purification. Normal phase purifications were carried out using Merck Silica Gel 60 (particle size: 0.040-0.063 mm, 230-400 mesh). Analytical characterization was performed on a HPLC-MS (Agilent-1200 series) with a DAD detector and a single quadrupole mass spectrometer (6130 series) with an ESI probe. ^1H-NMR and ^13C-NMR spectra were recorded on Bruker Avance 300 MHz NMR spectrometers, and chemical shifts are expressed in parts per million (ppm) and coupling constants are reported as a J value in Hertz (Hz). High resolution mass spectrometry (HRMS) data was recorded on a Micro mass VG 7035 (Mass Spectrometry Laboratory at National University of Singapore (NUS)). Spectroscopic and quantum yield data were measured on spectroscopic measurements, performed on a fluorometer and UV/VIS instrument, Synergy 4 of Bioteck Company. The slit width was 1 nm for both excitation and emission, and the data analysis was performed using GraphPrism 5.0.

Data set [2] has as its target T1, ABCG2 (Homo sapiens, UniProt Q9UNQ0).
T1 sequence (Q9UNQ0 1-655): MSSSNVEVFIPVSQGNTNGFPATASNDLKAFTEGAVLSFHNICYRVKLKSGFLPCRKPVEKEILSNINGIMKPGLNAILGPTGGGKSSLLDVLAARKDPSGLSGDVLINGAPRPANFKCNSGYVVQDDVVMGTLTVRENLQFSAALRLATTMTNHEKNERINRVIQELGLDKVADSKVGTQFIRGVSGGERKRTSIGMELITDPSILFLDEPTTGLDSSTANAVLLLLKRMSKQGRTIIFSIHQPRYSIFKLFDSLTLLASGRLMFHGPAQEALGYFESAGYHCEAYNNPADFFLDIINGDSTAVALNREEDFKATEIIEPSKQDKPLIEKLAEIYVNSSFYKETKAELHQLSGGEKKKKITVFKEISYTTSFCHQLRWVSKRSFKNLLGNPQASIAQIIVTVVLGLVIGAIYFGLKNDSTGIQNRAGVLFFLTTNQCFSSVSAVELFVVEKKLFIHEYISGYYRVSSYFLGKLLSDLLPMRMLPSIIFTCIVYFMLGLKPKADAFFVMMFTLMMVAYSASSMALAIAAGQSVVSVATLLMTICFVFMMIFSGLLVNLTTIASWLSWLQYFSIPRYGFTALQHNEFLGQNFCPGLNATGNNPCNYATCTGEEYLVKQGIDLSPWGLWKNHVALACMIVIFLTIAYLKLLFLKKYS
Description: Probe response to Ko143 in RPMI-8226 cells. Format: cell-based. More on the design: pre-treatment of RPMI-8226 cells with or without Ko143; endogenous in cells; host or cells: RPMI-8226. As to conditions: RPMI-8226, Ko143 pre-treatment, 1 μM probe. The procedure:
FIGS. 11A-11B show CDg13 has high sensitivity to ABCG2: (A) and (B) pre-treatment of RPMI-8226 cells with or without Ko143 were conducted for 30 minutes prior to staining with 1 μM of CDg13, pheophorbide A (PhA) or CDr3, fold change of fluorescence intensity from 3-6 independent experiments (A) (values are means±SEM, *, p<0.05; **, p<0.01), and representative fluorescence histogram of CDg13 and PhA (B) (unstained, 0, 100, 1,000 and 5,000 nM of Ko143 treated group is presented).

The subject of data set [3] is Abcg2. Description: CDg13 staining of Abcg2 knockdown D-NS5 cells. As to conditions: D-NS5, siAbcg2 versus controls, 1 hour staining. It is filed as cell-based, mouse. The procedure:
FIGS. 9A-9D show gene expression of ABC transporters: (A) undifferentiated (NS5) and 3-days differentiated NS5 (D-NS5), (B) the mRNA expression of the indicated ABC transporters were analyzed by qRT-PCR using total RNA from control and Abcg2-targeted siRNA transfected D-NS5 cells (N=3), and (C) and (D) negative (−) control siRNA (siCon) and Abcg2-targeted siRNA (siAbcg2) treated D-NS5 cells were stained with CDg13 for 1 hour, representative cells image (C) and the intensity staining of CDg13 (D) are shown (N=3) (data were normalized by β-actin expression and represented as relative fold, all values are means±SEM, *, p<0.05; **, p<0.01, unpaired two-tailed Student's T-test was used to calculate statistical significance)(Bar in (C): 100 μm).
siRNAs targeted to mouse ABCG2 gene and non-targeted control (Santa Cruz) were transiently introduced to 2 days differentiated NS-5 cells by using RNAiMAX (Invitrogen). We used 20 nM of siRNA and 3 μl of RNAiMAX for transfecting one well of 12-well plate (70-80% confluence with cells). Transfection efficiency in the condition was more than 90% as measured by fluorescence non-targeted siRNA. The levels of RNA and their analysis were performed after 3 days of transfection.

Regarding `CCCCCCCCCN(CCCCCCCCC)C(=O)c1ccc(-c2c3cc(Cl)c(=O)cc-3oc3cc(O)c(Cl)cc23)cc1` [CDg13], in the data set with mouse NSPCs, the “effect on neurosphere size” value was “no significant difference in neurosphere size”. For the same molecule, in the data set on mouse NSPCs (third passage), the “neurosphere size on average” value was 109 μm. In data set [1] (100 μM in ethanol), the “Abs (nm)” value worked out at 520 nm and the “Em (nm)” value turned out to be 553 nm. In data set [1] (100 μM in ethanol, reference fluorescein), the “QY (Φ)” value was found to be 0.82. Besides, the extinction co-efficient in data set [1] (measured in ethanol) is 40933.2 M⁻¹ cm⁻¹. For the same molecule, the “sensitivity of response to ABCG2” value on ABCG2 [2] is “higher sensitivity and produced more consistent data than PhA”. Moreover, the “CDg13 staining increase by Abcg2 knockdown” value in the data set on Abcg2 [3] is on record as “around 2 fold”.

The values are drawn from patent US20180024136A1, “Development of ABCG2-Sensitive Fluorescent Probe For Isolation of ABCG2low Neural Stem/Progenitor Cells” (National University of Singapore, priority 2015, published 2018).
